Laboratory results taken from ChEMBL document CHEMBL1201862, “PubChem BioAssay data set” (2004).
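Step 1: Grow cells in 96-well plates. Step 2: Expose to compound for 48 hours at 5 concentrations. Step 3: Interpolate endpoints linearly; if unreached, use highest concentration. GI50: concentration for 50% inhibition of growth.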 Active and inactive are the calls of the source. Rule as the data show it: active = GI50 up to about 1.1 µM and inactive = higher.

How the values were obtained:
Test in all cases: DTP human tumour cell line panel, 48 h
DLD-1 = system: DLD-1
DMS-114 = system: DMS-114
DMS-273 = system: DMS-273
HOP-18 = system: HOP-18
K562 = system: K562
KM-20L2 = system: KM-20L2
M19-MEL = system: M19-MEL
OVCAR-4 = system: OVCAR-4
RXF 393 = system: RXF 393
SF-268 = system: SF-268
SK-MEL-2 = system: SK-MEL-2
SK-OV-3 = system: SK-OV-3
SNB-78 = system: SNB-78

Measured: GI50

O=c1oc2cc(O)ccc2c2oc3cc(O)ccc3c12 [COUMESTROL]
inactive: DLD-1 62.5 µM | DMS-114 9.89 µM | DMS-273 54.7 µM | HOP-18 > 125 µM | K562 74 µM | KM-20L2 41 µM | M19-MEL 92.7 µM | OVCAR-4 83.9 µM | RXF 393 54.1 µM | SF-268 53.7 µM | SK-MEL-2 > 125 µM | SK-OV-3 42.1 µM | SNB-78 64.4 µM
